Laboratory results as given in PMC12652222 (International Journal of Molecular Sciences, 2025).
Several values for one entry are separate records, joined by “and”; a condition that tells them apart may be missing. Equal entries are not always repeated.

Legend:
α-amylase = target: T1, α-amylase (Homo sapiens, UniProt P04746); assay: α-Amylase inhibition; type: biochemical; details: for inhibition at 20 µg/mL: read-out: α-Amylase Inhibition (%)
T1 sequence (P04746 16-511): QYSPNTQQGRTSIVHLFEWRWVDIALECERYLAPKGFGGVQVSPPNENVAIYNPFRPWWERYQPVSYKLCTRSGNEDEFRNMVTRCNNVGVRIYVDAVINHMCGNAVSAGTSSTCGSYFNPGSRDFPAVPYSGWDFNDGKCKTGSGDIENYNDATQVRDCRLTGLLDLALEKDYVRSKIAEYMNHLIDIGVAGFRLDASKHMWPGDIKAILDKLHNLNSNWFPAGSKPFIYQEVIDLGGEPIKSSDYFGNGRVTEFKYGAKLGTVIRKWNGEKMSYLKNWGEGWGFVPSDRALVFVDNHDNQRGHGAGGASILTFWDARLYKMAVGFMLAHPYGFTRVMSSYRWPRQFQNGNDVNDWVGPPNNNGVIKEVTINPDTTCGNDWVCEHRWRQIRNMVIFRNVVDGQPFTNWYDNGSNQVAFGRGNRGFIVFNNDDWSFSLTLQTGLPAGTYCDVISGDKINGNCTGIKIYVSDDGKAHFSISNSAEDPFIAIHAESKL
Procedure: (§1) The IC50 and inhibition percentages (Inhib. %) of the enzymes α-amylase and α-glucosidase were calculated.

proteinase enzyme = assay: Proteinase inhibition (anti-arthritic); type: biochemical; set-up: Proteinase Inhibition (%): concentration or dose not given beside the values; details: mean ± SE, n = 3
Procedure: (§2) Anti-arthritic activity was evaluated using diclofenac sodium as the reference drug. The inhibition percentage and IC50 were determined for protein denaturation and the proteinase enzyme.

[1] = Iron-reducing power (IRP); type: biochemical; details: mean ± SE, n = 3
Procedure: (§3) The antioxidant activity was assessed using the iron reducing power (IRP) and the total antioxidant capacity (TAC). Ascorbic acid served as a standard to calculate the inhibition percentages (%) and the median inhibitory concentration (IC50) of each tested compound against the following radicals: nitric oxide (NO), hydroxyl (OH), hydrogen peroxide (H2O2), ABTS [79], and DPPH [80].

protein denaturation = assay: Protein denaturation inhibition (anti-arthritic); type: biochemical; set-up: concentration or dose not given beside the values; details: mean ± SE, n = 3
Procedure: as §2

[2] = target: acetylcholinesterase (AChE) (Homo sapiens, UniProt P22303); assay: biochemical; details: mean ± SE, n = 3; for IC50: read-out: AChE IC50 (µg/mL) (converted)
Procedure: The inhibition percentage and IC50 of the acetylcholinesterase (AChE) enzyme were measured using the Ellman method.

[3] = Nitric oxide (NO) radical scavenging; type: biochemical; details: mean ± SE, n = 3; for NO (%): inhibition % at 20 µg/mL
Procedure: as §3

[4] = Hydroxyl (OH) radical scavenging; type: biochemical; details: mean ± SE, n = 3; for OH (%): inhibition % at 20 µg/mL
Procedure: as §3

DPPH radical scavenging = type: biochemical; details: mean ± SE, n = 3; for DPPH (%): inhibition % at 20 µg/mL
Procedure: as §3

[5] = Total antioxidant capacity (TAC); type: biochemical; details: mean ± SE, n = 3
Procedure: as §3

α-glucosidase = assay: α-Glucosidase inhibition; type: biochemical
Procedure: as §1

[6] = Hydrogen peroxide (H2O2) scavenging; type: biochemical; details: mean ± SE, n = 3; for H2O2 (%): inhibition % at 20 µg/mL
Procedure: as §3

ABTS radical scavenging = type: biochemical; details: mean ± SE, n = 3; for ABTS (%): inhibition % at 20 µg/mL
Procedure: as §3

acetylcholinesterase (AChE), sequence (P22303 32-614, species assumed): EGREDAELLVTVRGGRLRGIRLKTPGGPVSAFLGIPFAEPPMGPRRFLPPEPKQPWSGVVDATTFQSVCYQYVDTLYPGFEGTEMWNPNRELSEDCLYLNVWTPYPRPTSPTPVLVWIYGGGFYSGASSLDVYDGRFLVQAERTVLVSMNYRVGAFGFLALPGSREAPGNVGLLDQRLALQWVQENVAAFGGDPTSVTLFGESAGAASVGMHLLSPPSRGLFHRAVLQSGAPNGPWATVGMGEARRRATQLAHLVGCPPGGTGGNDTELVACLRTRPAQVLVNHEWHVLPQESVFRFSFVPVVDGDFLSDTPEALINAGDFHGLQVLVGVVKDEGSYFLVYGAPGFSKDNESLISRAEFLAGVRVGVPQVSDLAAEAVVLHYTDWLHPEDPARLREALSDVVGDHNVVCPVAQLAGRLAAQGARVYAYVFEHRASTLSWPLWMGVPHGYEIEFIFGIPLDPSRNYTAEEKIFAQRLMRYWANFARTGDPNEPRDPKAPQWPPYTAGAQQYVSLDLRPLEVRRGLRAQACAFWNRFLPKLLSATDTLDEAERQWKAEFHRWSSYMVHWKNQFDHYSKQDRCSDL

Row | Compound | inhibition at 20 µg/mL (α-amylase) [%] | Proteinase IC50 (proteinase enzyme) [µg/mL] | Proteinase Inhibition (%) (proteinase enzyme) | IRP [1] | Protein Denaturation Inhibition (%) (protein denaturation) | inhibition at 20 µg/mL [2] [%] | IC50 [2] [µM] | NO (%) [3] [%] | NO radical scavenging IC50 [3] [µg/mL] | OH (%) [4] [%] | OH radical scavenging IC50 [4] [µg/mL] | DPPH (%) (DPPH radical scavenging) | DPPH radical scavenging IC50 (DPPH radical scavenging) [µg/mL] | TAC (mg Gallic Acid/g) [5] | α-Glucosidase IC50 (α-glucosidase) [µg/mL] | H2O2 (%) [6] [%] | H2O2 scavenging IC50 [6] [µg/mL] | ABTS (%) (ABTS radical scavenging) | ABTS radical scavenging IC50 (ABTS radical scavenging) [µg/mL] | other results
1 | O=c1/c(=C\[C@H](O)[C@@H](O)[C@@H](O)[C@H](O)CO)sc2nc3sc4c(c3c(=O)n12)CCC4 [7c, (E)-2-((2S,3R,4S,5R)-2,3,4,5,6-pentahydroxyhexylidene)-7,8-dihydro-5H,6H-cyclopenta [4,5]thieno [2,3-d]thiazolo [3,2-a]-pyrimidine-3,5(2H)-dione] | 16.2 ± 0.24 | 46.88 ± 1.21 | 9.91 ± 0.21 | 13.25 ± 0.26 µg/mL | 14.08 ± 0.21 | 5.87 ± 0.19 | 115 | 11.25 ± 0.26 | 36.00 ± 0.45 | 9.78 ± 0.22 | 48.42 ± 1.40 | 17.00 ± 0.26 | 22.84 ± 0.23 | 20.40 ± 0.26 mg Gallic Acid/g | 22.37 ± 0.53 | 10.96 ± 0.25 | 53.83 ± 1.05 | 20.15 ± 0.26 | 16.06 ± 0.19 | –
2 | O=c1/c(=C\[C@H](O)[C@@H](O)[C@H](O)CO)sc2nc3sc4c(c3c(=O)n12)CCC4 [7d, (E)-2-((2S,3R,4R)-2,3,4,5-tetrahydroxypentylidene)-7,8-dihydro-5H,6H-cyclopenta [4,5]thieno [2,3-d]thiazolo [3,2-a]-pyrimidine-3,5(2H)-dione] | 15.9 ± 0.22 | 48.10 ± 0.46 | 9.65 ± 0.19 | 12.94 ± 0.23 µg/mL | 13.82 ± 0.19 | 4.4 ± 0.14 | 165 | 10.94 ± 0.23 | 37.06 ± 1.13 | 9.51 ± 0.20 | 49.77 ± 0.65 | 16.69 ± 0.23 | 23.28 ± 0.49 | 20.09 ± 0.23 mg Gallic Acid/g | 23.09 ± 0.41 | 10.65 ± 0.22 | 55.36 ± 1.03 | 19.84 ± 0.23 | 16.31 ± 0.16 | –
3 | O=c1/c(=C\[C@@H](O)[C@H](O)[C@H](O)CO)sc2nc3sc4c(c3c(=O)n12)CCC4 [7e, (E)-2-((2R,3S,4R)-2,3,4,5-tetrahydroxypentylidene)-7,8-dihydro-5H,6H-cyclopenta [4,5]thieno [2,3-d]thiazolo [3,2-a]-pyrimidine-3,5(2H)-dione] | 14.6 ± 0.2 | 54.22 ± 0.58 | 8.56 ± 0.18 | 11.62 ± 0.21 µg/mL | 12.73 ± 0.18 | 4.11 ± 0.13 | 176 | 9.62 ± 0.21 | 42.12 ± 1.33 | 8.37 ± 0.19 | 56.57 ± 0.81 | 15.37 ± 0.21 | 25.27 ± 0.54 | 18.77 ± 0.21 mg Gallic Acid/g | 26.75 ± 0.52 | 9.37 ± 0.21 | 62.92 ± 1.25 | 18.52 ± 0.21 | 17.47 ± 0.17 | –
4 | O=c1/c(=C\[C@H](O)[C@@H](O)[C@H](O)[C@H](O)CO)sc2nc3sc4c(c3c(=O)n12)CCCC4 [8a, (E)-2-((2S,3R,4R,5R)-2,3,4,5,6-pentahydroxyhexylidene)-6,7,8,9-tetrahydro-5H-benzo [4,5]thieno [2,3-d]thiazolo [3,2-a]-pyrimidine-3,5(2H)-dione] | 10.1 ± 0.17 | 101.84 ± 3.59 | 4.57 ± 0.15 | 6.80 ± 0.18 µg/mL | 8.74 ± 0.15 | 5.81 ± 0.18 | 112 | 4.80 ± 0.18 | 84.51 ± 2.12 | 4.17 ± 0.15 | 113.71 ± 4.73 | 10.55 ± 0.18 | 36.82 ± 0.42 | 13.95 ± 0.18 mg Gallic Acid/g | 64.26 ± 2.84 | 4.67 ± 0.17 | 126.37 ± 4.09 | 13.70 ± 0.18 | 23.63 ± 0.28 | –
5 | O=c1/c(=C\[C@@H](O)[C@@H](O)[C@H](O)[C@H](O)CO)sc2nc3sc4c(c3c(=O)n12)CCCC4 [8b, (E)-2-((2R,3R,4R,5R)-2,3,4,5,6-pentahydroxyhexylidene)-6,7,8,9-tetrahydro-5H-benzo-[4,5]thieno [2,3-d]thiazolo [3,2-a]pyrimidine-3,5(2H)-dione] | 61.5 ± 0.74 | 65.93 ± 2.02 | 7.63 ± 0.19 | 60.86 µg/mL and 60.86 ± 0.78 µg/mL | 11.80 ± 0.19 | 5.19 ± 0.16 | 126 | – | 6.88 ± 0.16 | – | 9.24 ± 0.05 | – | 6.01 ± 0.12 | 68.01 mg Gallic Acid/g and 68.01 ± 0.78 mg Gallic Acid/g | 3.85 ± 0.05 | – | 10.28 ± 0.12 | – | 4.78 ± 0.05 | IC50 (α-amylase): 15.4 µM; inhibition of α-glucosidase (α-glucosidase; at 20 µg/mL): 54.78 ± 0.74%
6 | O=c1/c(=C\[C@H](O)[C@@H](O)[C@@H](O)[C@H](O)CO)sc2nc3sc4c(c3c(=O)n12)CCCC4 [8c, (E)-2-((2S,3R,4S,5R)-2,3,4,5,6-pentahydroxyhexylidene)-6,7,8,9-tetrahydro-5H-benzo [4,5]-thieno [2,3-d]thiazolo [3,2-a]-pyrimidine-3,5(2H)-dione] | 11.9 ± 0.19 | 75.16 ± 2.30 | 6.18 ± 0.17 | 8.75 ± 0.20 µg/mL | 10.35 ± 0.17 | 5.93 ± 0.19 | 110 | 6.75 ± 0.20 | 60.02 ± 1.12 | 5.87 ± 0.17 | 80.74 ± 2.84 | 12.50 ± 0.20 | 31.07 ± 0.34 | 15.90 ± 0.20 mg Gallic Acid/g | 41.00 ± 1.33 | 6.58 ± 0.20 | 89.75 ± 2.32 | 15.65 ± 0.20 | 20.68 ± 0.24 | –
